# ChEMBL document CHEMBL1201862, “PubChem BioAssay data set” (2004)
#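 Step 1: Grow cells in 96-well plates. Step 2: Expose to compound for 48 hours at 5 concentrations. Step 3: Interpolate endpoints linearly; if unreached, use highest concentration. GI50 marks 50% less growth.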 Calls of active or inactive are those of the source. Rule as the data show it: active = GI50 up to about 1.1 µM and inactive = higher.
# Legend:
# Experiment in all cases: DTP human tumour cell line panel, 48 h
# [1] = test system: MCF7
# [2] = test system: MDA-N
# [3] = test system: SK-MEL-28
# [4] = test system: Hs-578T
# [5] = test system: CAKI-1
# [6] = test system: A549
# [7] = test system: U-251
# [8] = test system: OVCAR-4
# [9] = test system: HCT-15
# [10] = test system: OVCAR-8
# [11] = test system: T47D
# [12] = test system: NCI/ADR-RES
# [13] = test system: SNB-19
# [14] = test system: RPMI-8226
# [15] = test system: ACHN
# [16] = test system: IGROV-1
# [17] = test system: NCI-H226
# [18] = test system: 786-0
# [19] = test system: NCI-H522
# [20] = test system: A498
# [21] = test system: SK-MEL-2
# [22] = test system: HCT-116
# [23] = test system: EKVX
# [24] = test system: SF-295
# [25] = test system: MDA-MB-435
# [26] = test system: UACC-257
# [27] = test system: DU-145
# [28] = test system: COLO 205
# [29] = test system: MOLT-4
# [30] = test system: SW-620
# [31] = test system: BT-549
# [32] = test system: NCI-H23
# [33] = test system: M14
# [34] = test system: OVCAR-3
# [35] = test system: MDA-MB-231
# [36] = test system: SF-539
# [37] = test system: TK-10
# [38] = test system: SN12C
# [39] = test system: SR
# [40] = test system: SK-OV-3
# [41] = test system: PC-3
# [42] = test system: Malme-3M
# [43] = test system: HL-60
# [44] = test system: OVCAR-5
# [45] = test system: UACC-62
# [46] = test system: SF-268
# [47] = test system: UO-31
# [48] = test system: KM12
# [49] = test system: HOP-92
# [50] = test system: HOP-62
# [51] = test system: HT-29
# [52] = test system: SK-MEL-5
# [53] = test system: CCRF-CEM
# [54] = test system: LOX IMVI
# [55] = test system: NCI-H460
# [56] = test system: HCC 2998
# [57] = test system: SNB-75
# [58] = test system: RXF 393
# [59] = test system: K562
smiles,measurement,setting,value
C=CCN1C[C@H](C)N([C@H](c2ccc(C(=O)N(CC)CC)cc2)c2cccc(OC)c2)C[C@H]1C [SNC-80],GI50,[1],39.1 µM (inactive)
same,GI50,[2],53.1 µM (inactive)
same,GI50,[3],69.3 µM (inactive)
same,GI50,[4],26 µM (inactive)
same,GI50,[5],> 100 µM (inactive)
same,GI50,[6],54.3 µM (inactive)
same,GI50,[7],44.9 µM (inactive)
same,GI50,[8],73.8 µM (inactive)
same,GI50,[9],70.3 µM
same,GI50,[10],> 100 µM (inactive)
same,GI50,[11],17 µM (inactive)
same,GI50,[12],39.4 µM (inactive)
same,GI50,[13],> 100 µM (inactive)
same,GI50,[14],29.1 µM (inactive)
same,GI50,[15],35.6 µM (inactive)
same,GI50,[16],35.2 µM (inactive)
same,GI50,[17],21.4 µM (inactive)
same,GI50,[18],> 100 µM (inactive)
same,GI50,[19],36.3 µM (inactive)
same,GI50,[20],13 µM (inactive)
same,GI50,[21],> 100 µM (inactive)
same,GI50,[22],42.7 µM (inactive)
same,GI50,[23],> 100 µM (inactive)
same,GI50,[24],19.9 µM (inactive)
same,GI50,[25],34.7 µM (inactive)
same,GI50,[26],19.5 µM (inactive)
same,GI50,[27],> 100 µM (inactive)
same,GI50,[28],16.8 µM (inactive)
same,GI50,[29],27.9 µM (inactive)
same,GI50,[30],44.6 µM (inactive)
same,GI50,[31],41.1 µM (inactive)
same,GI50,[32],32.7 µM (inactive)
same,GI50,[33],33.7 µM (inactive)
same,GI50,[34],18.3 µM (inactive)
same,GI50,[35],77.8 µM (inactive)
same,GI50,[36],51.5 µM (inactive)
same,GI50,[37],48 µM (inactive)
same,GI50,[38],64.1 µM (inactive)
same,GI50,[39],39.5 µM (inactive)
same,GI50,[40],75.2 µM (inactive)
same,GI50,[41],31.8 µM (inactive)
same,GI50,[42],16.7 µM (inactive)
same,GI50,[43],24.8 µM (inactive)
same,GI50,[44],> 100 µM (inactive)
same,GI50,[45],34.1 µM (inactive)
same,GI50,[46],86.5 µM (inactive)
same,GI50,[47],62.2 µM (inactive)
same,GI50,[48],50.8 µM (inactive)
same,GI50,[49],5.11 µM (inactive)
same,GI50,[50],74.1 µM (inactive)
same,GI50,[51],27.5 µM (inactive)
same,GI50,[52],14 µM (inactive)
Cc1cc(C(C)(C)C)cc(CNC2CCCCC2)c1O,GI50,[1],18.1 µM (inactive)
same,GI50,[2],16.3 µM (inactive)
same,GI50,[3],16.7 µM (inactive)
same,GI50,[4],20.2 µM (inactive)
same,GI50,[5],16.4 µM (inactive)
same,GI50,[6],18.4 µM (inactive)
same,GI50,[7],16.3 µM (inactive)
same,GI50,[8],19.5 µM (inactive)
same,GI50,[9],16.6 µM
same,GI50,[10],17.3 µM (inactive)
same,GI50,[11],14.8 µM (inactive)
same,GI50,[12],16.4 µM (inactive)
same,GI50,[13],16.6 µM (inactive)
same,GI50,[14],17.5 µM (inactive)
same,GI50,[15],17.1 µM (inactive)
same,GI50,[53],17.9 µM (inactive)
same,GI50,[16],13.8 µM (inactive)
same,GI50,[18],16.2 µM (inactive)
same,GI50,[54],16 µM (inactive)
same,GI50,[55],14.8 µM (inactive)
same,GI50,[19],12.6 µM (inactive)
same,GI50,[56],3 µM (inactive)
same,GI50,[20],16.6 µM (inactive)
same,GI50,[21],17.7 µM (inactive)
same,GI50,[22],15.4 µM (inactive)
same,GI50,[23],15.7 µM (inactive)
same,GI50,[24],16 µM (inactive)
same,GI50,[25],19.5 µM (inactive)
same,GI50,[26],14.9 µM (inactive)
same,GI50,[57],12.2 µM (inactive)
same,GI50,[27],21.3 µM (inactive)
same,GI50,[28],17.3 µM (inactive)
same,GI50,[29],31.3 µM (inactive)
same,GI50,[30],19.9 µM (inactive)
same,GI50,[58],< 0.01 µM (active)
same,GI50,[31],16.3 µM (inactive)
same,GI50,[32],15.4 µM (inactive)
same,GI50,[33],15.7 µM (inactive)
same,GI50,[34],15.6 µM (inactive)
same,GI50,[35],18 µM (inactive)
same,GI50,[36],18.2 µM (inactive)
same,GI50,[59],21.7 µM (inactive)
same,GI50,[37],16.1 µM (inactive)
same,GI50,[38],15.8 µM (inactive)
same,GI50,[39],21.8 µM (inactive)
same,GI50,[40],20 µM (inactive)
same,GI50,[41],16.5 µM (inactive)
same,GI50,[42],14.3 µM (inactive)
same,GI50,[44],16.2 µM (inactive)
same,GI50,[45],16 µM (inactive)
same,GI50,[46],16.1 µM (inactive)
same,GI50,[47],14.9 µM (inactive)
same,GI50,[48],19.9 µM (inactive)
same,GI50,[49],15.5 µM (inactive)
same,GI50,[50],20.9 µM (inactive)
same,GI50,[51],17.3 µM (inactive)
same,GI50,[52],17 µM (inactive)
O=C(O)Cn1cc([N+](=O)[O-])c(=O)c2ccccc21,GI50,[1],> 100 µM (inactive)
same,GI50,[2],> 100 µM (inactive)
same,GI50,[3],> 100 µM (inactive)
same,GI50,[4],> 100 µM (inactive)
same,GI50,[5],> 100 µM (inactive)
same,GI50,[6],> 100 µM (inactive)
same,GI50,[7],> 100 µM (inactive)
same,GI50,[9],> 100 µM
same,GI50,[10],> 100 µM (inactive)
same,GI50,[11],18.8 µM (inactive)
same,GI50,[12],> 100 µM (inactive)
same,GI50,[13],> 100 µM (inactive)
same,GI50,[15],> 100 µM (inactive)
same,GI50,[53],> 100 µM (inactive)
same,GI50,[16],> 100 µM (inactive)
same,GI50,[17],> 100 µM (inactive)
same,GI50,[18],> 100 µM (inactive)
same,GI50,[55],> 100 µM (inactive)
same,GI50,[19],> 100 µM (inactive)
same,GI50,[56],> 100 µM (inactive)
same,GI50,[20],> 100 µM (inactive)
same,GI50,[21],> 100 µM (inactive)
same,GI50,[22],> 100 µM (inactive)
same,GI50,[24],> 100 µM (inactive)
same,GI50,[25],> 100 µM (inactive)
same,GI50,[26],> 100 µM (inactive)
same,GI50,[57],> 100 µM (inactive)
same,GI50,[27],57 µM (inactive)
same,GI50,[28],19.5 µM (inactive)
same,GI50,[29],> 100 µM (inactive)
same,GI50,[30],> 100 µM (inactive)
same,GI50,[31],> 100 µM (inactive)
same,GI50,[32],> 100 µM (inactive)
same,GI50,[33],> 100 µM (inactive)
same,GI50,[34],> 100 µM (inactive)
same,GI50,[35],18.8 µM (inactive)
same,GI50,[36],> 100 µM (inactive)
same,GI50,[59],> 100 µM (inactive)
same,GI50,[37],> 100 µM (inactive)
same,GI50,[38],> 100 µM (inactive)
same,GI50,[39],> 100 µM (inactive)
same,GI50,[40],> 100 µM (inactive)
same,GI50,[41],> 100 µM (inactive)
same,GI50,[42],> 100 µM (inactive)
same,GI50,[43],> 100 µM (inactive)
same,GI50,[44],> 100 µM (inactive)
same,GI50,[45],> 100 µM (inactive)
same,GI50,[46],> 100 µM (inactive)
same,GI50,[47],> 100 µM (inactive)
same,GI50,[48],> 100 µM (inactive)
same,GI50,[50],> 100 µM (inactive)
same,GI50,[51],> 100 µM (inactive)
same,GI50,[52],> 100 µM (inactive)
